Reference: US20180271853A1, “Method of Use for Inhibitors of Epidermal Growth Factor Receptor Variant III” (METASTAT, INC., priority 2015, published 2018)

Tests used:
[1] = target: T1, phosphoY1173-EGFRviii expressed in U87MG tumor cells (Homo sapiens, UniProt P00533, DELINS30-297G); assay: Inhibition of phosphoY1173-EGFRviii in U87MG tumor cells engineered to express EGFR-viii (in-cell ELISA); type: cell-based; settings: for activity against EGFR-viii: FIG. 1
T1 construct: expressed in transfected cells; host or cells: U87MG (ATCC), lentiviral infection, puromycin selection
Method: Cells stably expressing EGFR-WT or EGFR-viii were maintained in the presence of 0.5 ug/ml puromycin.
All EGFR inhibitors were purchased from Selleck Chemicals, Houston TX, at a concentration of 10 mM in DMSO. […] Serial dilution of compounds was prepared using DMSO at 100× the final concentration indicated and then diluted in cell media to the final concentration indicated.
Data are expressed as EC50 and were determined using an in-cell ELISA kit (Pierce).

[2] = target: EGFR-viii (Homo sapiens, UniProt P00533, DELINS30-297G); settings: Ji, Zhao et al., 2006; Vivanco, Robins et al., 2012; cited from earlier work
[3] = tested on: tumors expressing EGFR-viii; settings: cited from earlier work; for benefit for GBM in clinical studies: clinical studies evaluating reversible or covalent EGFR inhibitors in GBM

Compound C=CC(=O)Nc1ccc2ncnc(Nc3ccc(OCc4cccc(F)c4)c(Cl)c3)c2c1 [AST-1306] has an EC50 ([1]; in-cell ELISA, FIG. 1, read-out: EC50 against EGFR-viii) of under 0.05 µM.

For C=CC(=O)Nc1cccc(Nc2nc(Nc3ccc(N4CCN(C(C)=O)CC4)cc3OC)ncc2C(F)(F)F)c1 [CO-1686], the “activity against EGFR-viii” value [1] was “weak activity”.

For C=CC(=O)Nc1cccc(Oc2nc(Nc3ccc(N4CCN(C)CC4)cc3)ncc2Cl)c1 [WZ3146], the “activity against EGFR-viii” value [1] was “weak activity”.

In the case of C=CC(=O)Nc1cccc(Sc2nc(Nc3ccc(N4CCN(C)CC4)cc3)ncc2Cl)c1 [WZ8040], the “activity against EGFR-viii” value [1] is reported as “weak activity”.

In the case of COc1cc2ncnc(Nc3ccc(F)c(Cl)c3)c2cc1NC(=O)/C=C/CN1CCCCC1 [dacomitinib], the “inhibition of EGFR-viii (recent studies)” value [2] is given as “potent inhibitors of EGFR-viii”.

For C#Cc1cccc(Nc2ncnc3cc(OCCOC)c(OCCOC)cc23)c1 [erlotinib], the “benefit for GBM in clinical studies” value [3] is given as “failed to demonstrate significant benefit”.

For CS(=O)(=O)CCNCc1ccc(-c2ccc3ncnc(Nc4ccc(OCc5cccc(F)c5)c(Cl)c4)c3c2)o1 [lapatinib], the “benefit for GBM in clinical studies” value [3] is listed as “failed to demonstrate significant benefit” and the “cancer growth inhibition in clinical studies” value ([3]; clinical studies, GBM) is listed as “insignificant cancer growth inhibition”.
